# Tests used:
# Test in all cases: Kinase selectivity panel
# Type in all cases: biochemical
# [1] = target: T1, Abl(T315I)(h) (Homo sapiens, UniProt P00519, T315I); conditions: read-out: Inhibition(%) @ 1 µM RK-019
# T1 construct: purchased Eurofins Discovery Services (KinaseProfiler)
# Method in brief: (§1)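 Single-point selectivity screen: 1 µM compound, recombinant human enzyme, in vitro ATP-site competition binding; result expressed as inhibition ratio.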
# [2] = target: T2, CDKL4(h) (Homo sapiens, UniProt Q5MAI5); conditions: read-out: Inhibition(%) @ 1 µM RK-019
# T2 construct: purchased Eurofins Discovery Services (KinaseProfiler)
# Method in brief: as §1
# [3] = target: T3, CHK2(R145W)(h) (Homo sapiens, UniProt O96017, R145W); conditions: read-out: Inhibition(%) @ 1 µM RK-019
# T3 construct: purchased Eurofins Discovery Services (KinaseProfiler)
# Method in brief: as §1
# [4] = target: T4, CaMKI(h) (Homo sapiens, UniProt Q14012); conditions: read-out: Inhibition(%) @ 1 µM RK-019
# T4 construct: purchased Eurofins Discovery Services (KinaseProfiler)
# Method in brief: as §1
# [5] = target: T5, DYRK1B(h) (Homo sapiens, UniProt Q9Y463); conditions: read-out: Inhibition(%) @ 1 µM RK-019
# T5 construct: purchased Eurofins Discovery Services (KinaseProfiler)
# Method in brief: as §1
# [6] = target: T6, EGFR(T790M)(h) (Homo sapiens, UniProt P00533, T790M); conditions: read-out: Inhibition(%) @ 1 µM RK-019
# T6 construct: purchased Eurofins Discovery Services (KinaseProfiler)
# Method in brief: as §1
# [7] = target: T7, GSK3α(h) (Homo sapiens, UniProt P49840); conditions: read-out: Inhibition(%) @ 1 µM RK-019
# T7 construct: purchased Eurofins Discovery Services (KinaseProfiler)
# Method in brief: as §1
# [8] = target: T8, HIPK2(h) (Homo sapiens, UniProt Q9H2X6); conditions: read-out: Inhibition(%) @ 1 µM RK-019
# T8 construct: purchased Eurofins Discovery Services (KinaseProfiler)
# Method in brief: as §1
# [9] = target: T9, HIPK4(h) (Homo sapiens, UniProt Q8NE63); conditions: read-out: Inhibition(%) @ 1 µM RK-019
# T9 construct: purchased Eurofins Discovery Services (KinaseProfiler)
# Method in brief: as §1
# [10] = target: T10, HPK1(h) (Homo sapiens, UniProt Q92918); conditions: read-out: Inhibition(%) @ 1 µM RK-019
# T10 construct: purchased Eurofins Discovery Services (KinaseProfiler)
# Method in brief: as §1
# [11] = target: T11, IRR(h) (Homo sapiens, UniProt P14616); conditions: read-out: Inhibition(%) @ 1 µM RK-019
# T11 construct: purchased Eurofins Discovery Services (KinaseProfiler)
# Method in brief: as §1
# [12] = target: T12, Lyn(h) (Homo sapiens, UniProt P07948)
# T12 construct: purchased Eurofins Discovery Services (KinaseProfiler)
# T12 sequence (P07948 whole entry): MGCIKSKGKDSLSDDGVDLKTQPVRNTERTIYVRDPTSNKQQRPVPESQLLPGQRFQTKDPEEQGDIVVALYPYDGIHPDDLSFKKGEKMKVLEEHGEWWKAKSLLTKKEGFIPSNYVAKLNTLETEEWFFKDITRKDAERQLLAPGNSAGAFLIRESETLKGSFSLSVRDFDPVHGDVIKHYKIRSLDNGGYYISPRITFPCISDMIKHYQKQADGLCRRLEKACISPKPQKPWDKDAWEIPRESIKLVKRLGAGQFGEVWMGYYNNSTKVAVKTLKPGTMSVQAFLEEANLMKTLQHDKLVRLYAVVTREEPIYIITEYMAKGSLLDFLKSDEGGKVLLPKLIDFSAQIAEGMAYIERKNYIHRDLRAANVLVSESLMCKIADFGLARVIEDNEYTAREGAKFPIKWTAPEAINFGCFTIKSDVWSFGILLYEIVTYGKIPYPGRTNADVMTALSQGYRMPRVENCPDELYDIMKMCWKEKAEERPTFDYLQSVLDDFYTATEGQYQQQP
# Method in brief: as §1
# [13] = target: T13, MAPKAP-K2(h) (Homo sapiens, UniProt P49137); conditions: read-out: Inhibition(%) @ 1 µM RK-019
# T13 construct: purchased Eurofins Discovery Services (KinaseProfiler)
# Method in brief: as §1
# [14] = target: T14, MARK1(h) (Homo sapiens, UniProt Q9P0L2); conditions: read-out: Inhibition(%) @ 1 µM RK-019
# T14 construct: purchased Eurofins Discovery Services (KinaseProfiler)
# Method in brief: as §1
# [15] = target: T15, MARK4(h) (Homo sapiens, UniProt Q96L34); conditions: read-out: Inhibition(%) @ 1 µM RK-019
# T15 construct: purchased Eurofins Discovery Services (KinaseProfiler)
# T15 sequence (Q96L34 whole entry): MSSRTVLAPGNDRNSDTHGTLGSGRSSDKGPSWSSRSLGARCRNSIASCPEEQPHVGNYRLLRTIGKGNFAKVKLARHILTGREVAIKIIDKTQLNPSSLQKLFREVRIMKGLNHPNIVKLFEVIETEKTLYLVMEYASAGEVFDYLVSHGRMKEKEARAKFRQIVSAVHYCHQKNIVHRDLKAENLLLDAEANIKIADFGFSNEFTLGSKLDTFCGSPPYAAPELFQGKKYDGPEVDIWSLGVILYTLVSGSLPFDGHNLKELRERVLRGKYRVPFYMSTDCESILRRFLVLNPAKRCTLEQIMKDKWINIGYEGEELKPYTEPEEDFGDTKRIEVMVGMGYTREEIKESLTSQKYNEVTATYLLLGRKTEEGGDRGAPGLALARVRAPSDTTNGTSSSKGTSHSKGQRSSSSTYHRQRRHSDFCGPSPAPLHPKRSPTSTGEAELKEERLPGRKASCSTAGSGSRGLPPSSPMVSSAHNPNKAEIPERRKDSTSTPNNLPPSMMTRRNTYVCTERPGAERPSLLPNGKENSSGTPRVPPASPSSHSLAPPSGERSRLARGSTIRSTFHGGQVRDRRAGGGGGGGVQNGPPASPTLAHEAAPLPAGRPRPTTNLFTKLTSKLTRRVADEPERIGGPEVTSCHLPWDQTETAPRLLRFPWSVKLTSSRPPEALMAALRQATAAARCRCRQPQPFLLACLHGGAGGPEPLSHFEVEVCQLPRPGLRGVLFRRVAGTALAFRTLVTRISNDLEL
# Method in brief: as §1
# [16] = target: T16, MEK2(h) (Homo sapiens, UniProt P36507); conditions: read-out: Inhibition(%) @ 1 µM RK-019
# T16 construct: purchased Eurofins Discovery Services (KinaseProfiler)
# Method in brief: as §1
# [17] = target: T17, MSK1(h) (Homo sapiens, UniProt O75582); conditions: read-out: Inhibition(%) @ 1 µM RK-019
# T17 construct: purchased Eurofins Discovery Services (KinaseProfiler)
# Method in brief: as §1
# [18] = target: T18, NEK7(h) (Homo sapiens, UniProt Q8TDX7); conditions: read-out: Inhibition(%) @ 1 µM RK-019
# T18 construct: purchased Eurofins Discovery Services (KinaseProfiler)
# Method in brief: as §1
# [19] = target: T19, NEK9(h) (Homo sapiens, UniProt Q8TD19); conditions: read-out: Inhibition(%) @ 1 µM RK-019
# T19 construct: purchased Eurofins Discovery Services (KinaseProfiler)
# Method in brief: as §1
# [20] = target: T20, NUAK2(h) (Homo sapiens, UniProt Q9H093); conditions: read-out: Inhibition(%) @ 1 µM RK-019
# T20 construct: purchased Eurofins Discovery Services (KinaseProfiler)
# Method in brief: as §1
# [21] = target: T21, PDGFRα(V561D)(h) (Homo sapiens, UniProt P16234, V561D); conditions: read-out: Inhibition(%) @ 1 µM RK-019
# T21 construct: purchased Eurofins Discovery Services (KinaseProfiler)
# T21 sequence (P16234 24-1089 V561D): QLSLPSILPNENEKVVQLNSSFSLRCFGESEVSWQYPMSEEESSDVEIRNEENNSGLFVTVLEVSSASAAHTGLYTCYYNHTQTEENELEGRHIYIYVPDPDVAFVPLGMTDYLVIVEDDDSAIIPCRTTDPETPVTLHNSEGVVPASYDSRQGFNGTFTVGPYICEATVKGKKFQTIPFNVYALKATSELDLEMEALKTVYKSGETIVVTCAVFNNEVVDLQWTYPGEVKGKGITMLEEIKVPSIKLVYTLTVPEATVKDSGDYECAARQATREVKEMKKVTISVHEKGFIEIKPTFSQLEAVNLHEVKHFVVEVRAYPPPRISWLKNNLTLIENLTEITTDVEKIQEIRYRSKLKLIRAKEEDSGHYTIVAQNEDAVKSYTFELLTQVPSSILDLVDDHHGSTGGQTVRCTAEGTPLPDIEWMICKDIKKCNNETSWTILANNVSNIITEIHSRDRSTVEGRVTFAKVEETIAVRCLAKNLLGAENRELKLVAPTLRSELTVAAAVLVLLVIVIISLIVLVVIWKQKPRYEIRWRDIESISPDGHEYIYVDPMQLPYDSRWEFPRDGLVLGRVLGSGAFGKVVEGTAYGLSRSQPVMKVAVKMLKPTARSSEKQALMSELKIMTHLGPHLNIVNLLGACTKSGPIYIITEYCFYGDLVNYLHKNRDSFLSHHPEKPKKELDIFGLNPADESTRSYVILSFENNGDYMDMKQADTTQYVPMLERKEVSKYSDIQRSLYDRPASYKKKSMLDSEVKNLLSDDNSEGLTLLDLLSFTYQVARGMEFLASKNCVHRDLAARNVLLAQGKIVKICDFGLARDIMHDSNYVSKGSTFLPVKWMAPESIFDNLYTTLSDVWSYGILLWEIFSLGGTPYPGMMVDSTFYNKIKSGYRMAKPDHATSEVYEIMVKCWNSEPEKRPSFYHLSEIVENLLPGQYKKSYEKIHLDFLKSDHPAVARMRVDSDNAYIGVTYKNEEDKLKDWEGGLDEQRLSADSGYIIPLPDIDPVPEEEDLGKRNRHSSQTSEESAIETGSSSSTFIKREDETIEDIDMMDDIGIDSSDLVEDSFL
# Method in brief: as §1
# [22] = target: T22, PDGFRα(h) (Homo sapiens, UniProt P16234); conditions: read-out: Inhibition(%) @ 1 µM RK-019
# T22 construct: purchased Eurofins Discovery Services (KinaseProfiler)
# T22 sequence (P16234 24-1089): as the sequence (P16234 24-1089 V561D) above, with D538V counted along it
# Method in brief: as §1
# [23] = target: T23, PI3 Kinase (p110a/p85a)(h) (Homo sapiens, UniProt P42336); conditions: read-out: Inhibition(%) @ 1 µM RK-019
# T23 construct: purchased Eurofins Discovery Services (KinaseProfiler)
# Method in brief: as §1
# [24] = target: T24, PI3 Kinase (p110b/p85a)(m) (Mus musculus, UniProt Q8BTI9); conditions: read-out: Inhibition(%) @ 1 µM RK-019
# T24 construct: purchased Eurofins Discovery Services (KinaseProfiler)
# [25] = target: T25, PI3KC2g(h) (Homo sapiens, UniProt O75747); conditions: read-out: Inhibition(%) @ 1 µM RK-019
# T25 construct: purchased Eurofins Discovery Services (KinaseProfiler)
# Method in brief: as §1
# [26] = target: T26, PKCγ(h) (Homo sapiens, UniProt P05129); conditions: read-out: Inhibition(%) @ 1 µM RK-019
# T26 construct: purchased Eurofins Discovery Services (KinaseProfiler)
# Method in brief: as §1
# [27] = target: T27, PKD3(h) (Homo sapiens, UniProt O94806); conditions: read-out: Inhibition(%) @ 1 µM RK-019
# T27 construct: purchased Eurofins Discovery Services (KinaseProfiler)
# T27 sequence (O94806 whole entry): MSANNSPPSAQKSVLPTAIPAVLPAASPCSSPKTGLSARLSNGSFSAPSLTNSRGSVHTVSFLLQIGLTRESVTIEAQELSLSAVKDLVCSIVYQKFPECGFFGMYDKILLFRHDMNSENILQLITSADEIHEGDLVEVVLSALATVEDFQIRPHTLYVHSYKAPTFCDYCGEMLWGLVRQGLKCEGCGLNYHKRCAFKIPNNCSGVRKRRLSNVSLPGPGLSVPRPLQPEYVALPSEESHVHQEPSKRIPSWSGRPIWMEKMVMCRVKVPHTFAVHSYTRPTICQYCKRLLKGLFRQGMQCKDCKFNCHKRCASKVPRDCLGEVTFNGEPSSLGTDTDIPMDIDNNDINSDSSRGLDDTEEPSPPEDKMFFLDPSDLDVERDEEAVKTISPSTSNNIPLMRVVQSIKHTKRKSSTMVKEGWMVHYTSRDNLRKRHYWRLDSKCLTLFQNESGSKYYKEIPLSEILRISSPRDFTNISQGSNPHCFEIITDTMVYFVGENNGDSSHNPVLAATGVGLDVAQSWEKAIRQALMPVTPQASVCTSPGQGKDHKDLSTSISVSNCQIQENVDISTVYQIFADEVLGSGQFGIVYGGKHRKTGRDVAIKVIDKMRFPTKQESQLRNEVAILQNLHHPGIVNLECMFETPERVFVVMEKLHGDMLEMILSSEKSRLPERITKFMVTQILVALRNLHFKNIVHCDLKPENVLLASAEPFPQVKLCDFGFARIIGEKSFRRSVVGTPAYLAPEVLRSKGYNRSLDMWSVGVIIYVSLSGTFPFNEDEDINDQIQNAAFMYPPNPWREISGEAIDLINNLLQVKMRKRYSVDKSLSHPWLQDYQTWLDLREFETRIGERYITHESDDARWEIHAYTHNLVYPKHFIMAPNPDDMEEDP
# Method in brief: as §1
# [28] = target: T28, PrKX(h) (Homo sapiens, UniProt P51817); conditions: read-out: Inhibition(%) @ 1 µM RK-019
# T28 construct: purchased Eurofins Discovery Services (KinaseProfiler)
# T28 sequence (P51817 whole entry): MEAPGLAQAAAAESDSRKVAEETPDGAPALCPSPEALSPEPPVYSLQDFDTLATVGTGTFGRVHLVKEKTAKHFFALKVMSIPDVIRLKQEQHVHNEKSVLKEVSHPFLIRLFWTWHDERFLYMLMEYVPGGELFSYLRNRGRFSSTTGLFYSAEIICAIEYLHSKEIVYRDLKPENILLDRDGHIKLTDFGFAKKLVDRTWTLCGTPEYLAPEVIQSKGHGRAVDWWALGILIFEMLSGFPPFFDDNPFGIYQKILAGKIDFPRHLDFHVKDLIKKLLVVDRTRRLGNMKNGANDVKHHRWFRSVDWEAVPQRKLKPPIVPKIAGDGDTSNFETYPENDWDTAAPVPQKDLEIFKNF
# Method in brief: as §1
# [29] = target: T29, Pyk2(h) (Homo sapiens, UniProt Q14289); conditions: read-out: Inhibition(%) @ 1 µM RK-019
# T29 construct: purchased Eurofins Discovery Services (KinaseProfiler)
# Method in brief: as §1
# [30] = target: T30, Rsk4(h) (Homo sapiens, UniProt Q9UK32); conditions: read-out: Inhibition(%) @ 1 µM RK-019
# T30 construct: purchased Eurofins Discovery Services (KinaseProfiler)
# Method in brief: as §1
# [31] = target: T31, SAPK2a(h) (Homo sapiens, UniProt Q16539); conditions: read-out: Inhibition(%) @ 1 µM RK-019
# T31 construct: purchased Eurofins Discovery Services (KinaseProfiler)
# Method in brief: as §1
# [32] = target: T32, STK32A(h) (Homo sapiens, UniProt Q8WU08); conditions: read-out: Inhibition(%) @ 1 µM RK-019
# T32 construct: purchased Eurofins Discovery Services (KinaseProfiler)
# Method in brief: as §1
# [33] = target: T33, TAO3(h) (Homo sapiens, UniProt Q9H2K8); conditions: read-out: Inhibition(%) @ 1 µM RK-019
# T33 construct: purchased Eurofins Discovery Services (KinaseProfiler)
# Method in brief: as §1
# [34] = target: T34, TGFBR2(h) (Homo sapiens, UniProt P37173); conditions: read-out: Inhibition(%) @ 1 µM RK-019
# T34 construct: purchased Eurofins Discovery Services (KinaseProfiler)
# T34 sequence (P37173 23-567): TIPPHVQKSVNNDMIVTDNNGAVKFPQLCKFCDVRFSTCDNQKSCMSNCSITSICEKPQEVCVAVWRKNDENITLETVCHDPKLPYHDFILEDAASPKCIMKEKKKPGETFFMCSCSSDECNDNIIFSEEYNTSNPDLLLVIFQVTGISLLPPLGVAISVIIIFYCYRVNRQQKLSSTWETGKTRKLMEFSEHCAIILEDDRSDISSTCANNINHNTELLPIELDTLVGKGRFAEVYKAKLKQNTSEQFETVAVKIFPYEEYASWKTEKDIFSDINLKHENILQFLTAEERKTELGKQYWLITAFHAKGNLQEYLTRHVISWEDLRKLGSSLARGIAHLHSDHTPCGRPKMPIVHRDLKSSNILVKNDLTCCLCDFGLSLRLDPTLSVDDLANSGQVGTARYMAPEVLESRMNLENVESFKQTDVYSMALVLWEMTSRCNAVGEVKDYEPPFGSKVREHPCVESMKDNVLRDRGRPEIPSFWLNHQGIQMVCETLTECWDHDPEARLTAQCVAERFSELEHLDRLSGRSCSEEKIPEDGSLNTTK
# Method in brief: as §1
# [35] = target: T35, TSSK3(h) (Homo sapiens, UniProt Q96PN8); conditions: read-out: Inhibition(%) @ 1 µM RK-019
# T35 construct: purchased Eurofins Discovery Services (KinaseProfiler)
# T35 sequence (Q96PN8 whole entry): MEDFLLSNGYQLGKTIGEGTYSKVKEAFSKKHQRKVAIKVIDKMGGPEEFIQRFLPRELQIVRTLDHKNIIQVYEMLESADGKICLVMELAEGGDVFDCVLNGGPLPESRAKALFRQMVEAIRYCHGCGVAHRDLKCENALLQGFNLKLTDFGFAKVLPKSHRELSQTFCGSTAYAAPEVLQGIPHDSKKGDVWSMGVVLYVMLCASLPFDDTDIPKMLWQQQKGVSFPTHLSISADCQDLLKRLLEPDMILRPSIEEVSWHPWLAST
# Method in brief: as §1
# [36] = target: T36, VRK1(h) (Homo sapiens, UniProt Q99986); conditions: read-out: Inhibition(%) @ 1 µM RK-019
# T36 construct: purchased Eurofins Discovery Services (KinaseProfiler)
# T36 sequence (Q99986 whole entry): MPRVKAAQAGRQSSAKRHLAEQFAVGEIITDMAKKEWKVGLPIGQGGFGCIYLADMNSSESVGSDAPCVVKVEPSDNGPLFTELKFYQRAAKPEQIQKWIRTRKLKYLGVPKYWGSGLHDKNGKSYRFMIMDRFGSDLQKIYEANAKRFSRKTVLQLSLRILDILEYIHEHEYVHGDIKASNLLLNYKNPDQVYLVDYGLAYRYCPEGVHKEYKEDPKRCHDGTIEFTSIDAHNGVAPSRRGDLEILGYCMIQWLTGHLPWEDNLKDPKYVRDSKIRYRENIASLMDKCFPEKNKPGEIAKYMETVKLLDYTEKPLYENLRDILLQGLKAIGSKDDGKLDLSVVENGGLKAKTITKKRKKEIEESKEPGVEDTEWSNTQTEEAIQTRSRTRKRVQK
# Method in brief: as §1
smiles,measurement,setting,value
"COc1cc(OC)cc(N(CCN[C@H](C)CO)c2ccc3ncc(-c4cnn(C)c4)c(=O)n3c2)c1 [RK-019, (R)-7-((3,5-dimethoxyphenyl) (2-((1-hydroxypropan-2-yl)amino)ethyl)amino)-3-(1-methyl-1H-pyrazol-4-yl)-4H-pyrido [1,2-a]pyrimidin-4-one]",activity at 1 µM,[1],66%
same,activity at 1 µM,[2],90%
same,activity at 1 µM,[3],100%
same,activity at 1 µM,[4],101%
same,activity at 1 µM,[5],97%
same,activity at 1 µM,[6],90%
same,activity at 1 µM,[7],85%
same,activity at 1 µM,[8],83%
same,activity at 1 µM,[9],100%
same,activity at 1 µM,[10],95%
same,activity at 1 µM,[11],104%
same,inhibition at 1 µM,"[12]; LYN, 1 µM, read-out: inhibition (hit in panel)",> 90%
same,activity at 1 µM,"[12]; Lyn(h), read-out: Inhibition(%) @ 1 µM RK-019",6%
same,activity at 1 µM,[13],121%
same,activity at 1 µM,[14],93%
same,activity at 1 µM,[15],106%
same,activity at 1 µM,[16],85%
same,activity at 1 µM,[17],95%
same,activity at 1 µM,[18],99%
same,activity at 1 µM,[19],91%
same,activity at 1 µM,[20],90%
same,activity at 1 µM,[21],1%
same,activity at 1 µM,[22],50%
same,activity at 1 µM,[23],101%
same,activity at 1 µM,[24],98%
same,activity at 1 µM,[25],102%
same,activity at 1 µM,[26],92%
same,activity at 1 µM,[27],99%
same,activity at 1 µM,[28],98%
same,activity at 1 µM,[29],112%
same,activity at 1 µM,[30],146%
same,activity at 1 µM,[31],100%
same,activity at 1 µM,[32],86%
same,activity at 1 µM,[33],100%
same,activity at 1 µM,[34],85%
same,activity at 1 µM,[35],102%
same,activity at 1 µM,[36],98%
